Measured values: US4069016A, “Assay for bilirubin” (priority 1977, dated 1978)
Where two headings read alike, the source gives them in different places.

Tests used:
Human Serum Albumin [1] = details: cited from earlier work
HSA [2] = target: T1, HSA (Homo sapiens, UniProt P02768); experiment: Bromophenol blue-HSA binding and competitive displacement by bilirubin, ultrafiltration, 590 nm
T1 construct: purchased Pentex, Miles Laboratories, Inc
Excerpt: In this Example, a solution assay for bilirubin in accord with the method of the present invention is illustrated. […] Using an Amicon Ultraflo Membrane Cone CF-25 (having a molecular weight cutoff of 25,000 daltons) in an ultrafiltration technique as described by U. Kragh-Hansen et. al., Biochim. et Biophys.

[3] = Molar absorptivity / extinction coefficient; format: physicochemical; details: at or near 590 nanometers
Excerpt: Among others, there are various direct spectrophotometric assay techniques for bilirubin which take advantage of the molar absorbtivity inherent in bilirubin. That is, bilirubin is a yellow pigment having a molar absorbtivity of about 5 × 10^4 as measured at 435 nanometers. However, although the molar absorbtivity of bilirubin is high enough to be useful in various direct spectrophotometric solution assay techniques, it is not sufficiently high to produce a quantitative assay for bilirubin using "dry chemistry" analytical test elements. Thus, present-day direct spectrophotometric assay techniques for bilirubin are generally limited to solution assay techniques, particularly if accurate, quantitative results are desired. […] In addition, other materials present in bilirubin-containing biological fluids such as human serum can also cause spectral interferences using such direct spectrophotometric assay methods.
In this Example, a solution assay for bilirubin in accord with the method of the present invention is illustrated. The assay of the present Example is similar to that described in Examples 1 and 2 above, except that the present Example illustrates the use of a colorimetric, rather than a fluorometric, assay using bromophenol blue indicator dye as the detectable ligand in the bilirubin-active complex. […]

[4] = 435 nanometers; cited from earlier work
HSA [5] = target: T1, HSA; experiment: ANS-HSA complex solution assay, fluorescence (ANS binding and displacement by bilirubin)
Description: Where the detectable ligand used in the following Examples was a fluorescent probe, arbitrary fluorescence, F, was recorded both immediately before and after addition of bilirubin (B) to the complex. The difference in these F values (i.e. ΔF) was then expressed as a percentage value by arbitrarily designating the F value for the complex at 100 prior to addition of any bilirubin analyte to the complex (i.e. at zero B concentration). A series of Δ F values were then plotted for a given complex having a constant D/P ratio against a series of liquid test samples containing varying B concentrations. As a result, one obtained a calibration curve for that complex. A liquid test sample containing an unknown amount of B, could then be evaluated by the Δ F value for that sample using the calibrated complex and then locating this Δ F value on the previously prepared calibration curve for the complex.
In this Example, fluorescence of the ANS-albumin complex was obtained by exciting the complex at an excitation maximum of 386 nanometers. […] As is known, the fluorescent probe ANS is highly fluorescent when associated with albumin, but is non-fluorescent when free in solution.
The fluorescence of each of these individual test solutions was monitored as bilirubin-containing test samples were admixed into these individual solutions. […]

Human Serum Albumin [6] = details: cited from earlier work; for first order binding constant KA to human serum albumin: Kragh-Hansen et al. 1974

T1 sequence (P02768 25-609): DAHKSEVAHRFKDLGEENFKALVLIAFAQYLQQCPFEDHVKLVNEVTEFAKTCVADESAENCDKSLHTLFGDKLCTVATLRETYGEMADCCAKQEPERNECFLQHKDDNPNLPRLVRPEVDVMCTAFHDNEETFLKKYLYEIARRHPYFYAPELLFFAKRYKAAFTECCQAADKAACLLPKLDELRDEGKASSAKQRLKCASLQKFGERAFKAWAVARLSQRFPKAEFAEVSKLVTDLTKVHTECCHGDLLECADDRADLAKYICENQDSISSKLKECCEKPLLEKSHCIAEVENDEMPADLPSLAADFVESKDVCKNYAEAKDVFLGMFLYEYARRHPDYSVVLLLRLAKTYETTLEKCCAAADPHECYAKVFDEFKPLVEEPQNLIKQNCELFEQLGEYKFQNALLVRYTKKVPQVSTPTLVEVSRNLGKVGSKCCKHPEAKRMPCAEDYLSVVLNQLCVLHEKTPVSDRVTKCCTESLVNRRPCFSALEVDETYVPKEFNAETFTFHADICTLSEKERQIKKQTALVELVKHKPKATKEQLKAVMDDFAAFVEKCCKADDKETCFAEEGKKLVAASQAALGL

Compound: CC(=O)[C@H]1CC[C@H]2[C@@H]3CCC4=CC(=O)CC[C@]4(C)[C@H]3CC[C@]12C [Progesterone]
- Binding Constant of primary or high affinity site(s) KA (Human Serum Albumin [1]; pH 7.4, 5° C): 37000 M⁻¹

Compound: Gentamicin sulfate [reference compound]
- Binding Constant of primary or high affinity site(s) KA (Human Serum Albumin [1]; pH 7.4, 37° C): < 10 M⁻¹

Compound: O=S1(=O)OC(c2cc(Br)c(O)c(Br)c2)(c2cc(Br)c(O)c(Br)c2)c2ccccc21 [bromophenol blue, reference compound]
- Kd (HSA [2]): 500 nM
- approximate maximum molar binding ratio of bromophenol blue to HSA (HSA [2]; 0.05 M sodium phosphate pH 7.4): about 3.4
- extinction coefficient [3]: approximately 78,000

Compound: C=CC1=C(C)/C(=C/c2[nH]c(Cc3[nH]c(/C=C4\NC(=O)C(C)=C4C=C)c(C)c3CCC(=O)O)c(CCC(=O)O)c2C)NC1=O [Bilirubin]
- molar absorbtivity [4]: about 5 × 10^4
- reduction in fluorescence of ANS/HSA complexes (displacement of ANS) (HSA [5]; 0.066 mg/dl bilirubin added, pH 7.4): drastic reduction in fluorescence
- extent of displacement of ANS from albumin (change in fluorescence) versus bilirubin (HSA [5]; 25 micromoles/l ANS, 15 micromoles/l HSA, bilirubin 0.03-0.33 mg/dl): quasi-linearly related to the amount of bilirubin added
- inhibition at 0.244 µg/mL (HSA [2]; pH 7.4, read-out: decrease in bromophenol blue binding to HSA, standard test solution about 0.0244 mg bilirubin per deciliter added): ~33%
- amount of bromophenol blue competitively displaced from the albumin carrier (HSA [2]; standard test solution approximately 10 mg bilirubin per deciliter, compared with 0.0244 mg/dl): substantially higher amount
- first order binding constant KA to human serum albumin (Human Serum Albumin [6]): greater than 10^8 M^-1
- Kd (Human Serum Albumin [6]; example given for comparison in Example 3, read-out: binding constant to albumin): ~10 nM
- Binding Constant of primary or high affinity site(s) KA (Human Serum Albumin [1]; pH 7.4, 25° C): 2.4e+08 M⁻¹
- Binding Constant of primary or high affinity site(s) KA (Human Serum Albumin [1]; pH 7.4, 37° C): 1.4e+08 M⁻¹

Compound: C[C@]12CC[C@@H]3c4ccc(O)cc4CC[C@H]3[C@@H]1CC[C@@H]2O [Estradiol]
- Binding Constant of primary or high affinity site(s) KA (Human Serum Albumin [1]; pH 7.4, 5° C): 100000 M⁻¹

Compound: C[C@]12CCC(=O)C=C1CC[C@@H]1[C@@H]2[C@@H](O)C[C@]2(C=O)[C@@H](C(=O)CO)CC[C@@H]12 [Aldosterone]
- Binding Constant of primary or high affinity site(s) KA (Human Serum Albumin [1]; pH 7.4, 5° C): < 5000 M⁻¹

Compound: O=C(O)c1ccccc1 [Sodium benzoate]
- Binding Constant of primary or high affinity site(s) KA (Human Serum Albumin [1]; pH 7.4, 37° C): 1700 M⁻¹

Compound: N[C@@H](Cc1cc(I)c(Oc2cc(I)c(O)c(I)c2)c(I)c1)C(=O)O [L-thyroxine]
- Binding Constant of primary or high affinity site(s) KA (Human Serum Albumin [1]; pH 7.4, 24° C): 10^6 M^-1

Compound: Cc1noc(NS(=O)(=O)c2ccc(N)cc2)c1C [Sulfisoxazole, reference compound]
- Binding Constant of primary or high affinity site(s) KA (Human Serum Albumin [1]; pH 7.4, 37° C): 19000 M⁻¹

Compound: N[C@@H](Cc1c[nH]c2ccccc12)C(=O)O [L-tryptophan]
- Binding Constant of primary or high affinity site(s) KA (Human Serum Albumin [1]; pH 7.4, 2° C): 16000 M⁻¹

Compound: O=S1(=O)OC(c2ccc(O)cc2)(c2ccc(O)cc2)c2ccccc21 [phenol red, reference compound]
- first order binding constant KA to human serum albumin (Human Serum Albumin [6]): about 10^4 M^-1

Compound: Nc1ccc(S(=O)(=O)Nc2ncccn2)cc1 [Sulfadiazine, reference compound]
- Binding Constant of primary or high affinity site(s) KA (Human Serum Albumin [1]; pH 7.4, 37° C): 820 M⁻¹

Compound: O=C1NC(=O)C(c2ccccc2)(c2ccccc2)N1 [Dipheylhydantoin, reference compound]
- Binding Constant of primary or high affinity site(s) KA (Human Serum Albumin [1]; pH not given (--), 37° C): 6000 M⁻¹

Compound: O=c1[nH]c(=O)c2[nH]c(=O)[nH]c2[nH]1 [Urate]
- Binding Constant of primary or high affinity site(s) KA (Human Serum Albumin [1]; pH 7.4, 37° C): 300 M⁻¹

Compound: CCCCCCCCCCCCCCCC(=O)O [palmitate]
- Binding Constant of primary or high affinity site(s) KA (Human Serum Albumin [1]; pH 7.4, 23° C): 10^6 M^-1

Compound: C[C@]12CC[C@H]3[C@@H](CCC4=CC(=O)CC[C@@]43C)[C@@H]1CC[C@@H]2O [Testosterone]
- Binding Constant of primary or high affinity site(s) KA (Human Serum Albumin [1]; pH 7.4, 25° C): 42000 M⁻¹

Compound: Polymyzin B sulfate [reference compound]
- Binding Constant of primary or high affinity site(s) KA (Human Serum Albumin [1]; pH 7.4, 37° C): < 100 M⁻¹
